Assay [1] relates to HeLa. In words: Proliferation assay (crystal violet), HeLa. In kind it is cell-based. To be noted: Homo sapiens, 96 h, 4 days, read-out: Inhibition of proliferation IC50 HeLa. An outline of the steps:
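Tumour cells seeded at 1000–5000 cells/well in medium with 10% FCS, dosed after 24 h at 0.001–10 μM (0.5% DMSO final) for 4 days. Cell number read by crystal-violet staining after glutaraldehyde fixation (A595), normalised to zero-point plate (0%) and untreated cells (100%); IC50 from 4-parameter fit.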

Assay [2] concerns the target human kinase Mps-1 (Homo sapiens (Human), UniProt P33981). The assay can be described thus: Mps-1 kinase assay (TR-FRET). In kind it is biochemical. The following applies: 10 μM ATP; read-out: Mps1 avg (IC50 [mol/l]). An outline of the steps:
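GST-tagged full-length human Mps-1 (~0.5 nM) preincubated 15 min with compound, then reacted 60 min at 22 °C with 10 μM ATP and 1 μM biotinylated peptide in Hepes pH 7.7 buffer. Phosphoproduct detected by TR-FRET (Eu anti-phospho-Ser/Thr, SA-XLent); 665/620 ratio normalised to no-inhibitor and no-enzyme controls.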

Where only a bound is given, the exact number is not on record here.

human kinase Mps-1, sequence (P33981 whole entry): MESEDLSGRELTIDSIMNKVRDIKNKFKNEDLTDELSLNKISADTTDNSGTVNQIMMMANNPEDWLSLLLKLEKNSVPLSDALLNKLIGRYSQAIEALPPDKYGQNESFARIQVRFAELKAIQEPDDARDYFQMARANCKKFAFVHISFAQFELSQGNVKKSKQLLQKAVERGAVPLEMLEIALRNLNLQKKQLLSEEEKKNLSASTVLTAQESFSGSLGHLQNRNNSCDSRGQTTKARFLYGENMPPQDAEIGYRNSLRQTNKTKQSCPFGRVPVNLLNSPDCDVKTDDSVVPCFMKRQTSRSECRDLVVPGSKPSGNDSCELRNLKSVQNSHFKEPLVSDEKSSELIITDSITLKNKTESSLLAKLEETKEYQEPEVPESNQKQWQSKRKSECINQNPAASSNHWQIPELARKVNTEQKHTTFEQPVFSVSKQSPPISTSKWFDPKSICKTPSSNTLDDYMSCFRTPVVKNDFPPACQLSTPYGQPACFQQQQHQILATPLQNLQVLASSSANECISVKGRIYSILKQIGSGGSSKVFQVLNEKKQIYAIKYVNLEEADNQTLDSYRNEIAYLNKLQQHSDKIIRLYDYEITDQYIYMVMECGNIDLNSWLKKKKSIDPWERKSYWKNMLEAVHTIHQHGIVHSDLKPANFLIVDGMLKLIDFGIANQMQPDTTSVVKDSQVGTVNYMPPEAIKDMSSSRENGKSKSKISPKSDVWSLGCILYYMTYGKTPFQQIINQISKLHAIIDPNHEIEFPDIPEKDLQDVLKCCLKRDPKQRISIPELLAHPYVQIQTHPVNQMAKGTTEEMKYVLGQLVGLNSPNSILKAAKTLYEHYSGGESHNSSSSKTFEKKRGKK

For `CCc1ccccc1NC(=O)c1c(C)nsc1Nc1ccncn1` [Example 2, N-(2-Ethylphenyl)-3-methyl-5-(pyrimidin-4-ylamino)-1,2-thiazole-4-carboxamide], the results for the IC50 in assay [1] and in assay [2] were more than 10 µM and more than 20 µM, respectively. For `CCc1ccccc1NC(=O)c1c(C)nsc1Nc1ncccc1C(F)(F)F` [Example 3, N-(2-Ethylphenyl)-3-methyl-5-{[3-(trifluoromethyl)pyridin-2-yl]amino}-1,2-thiazole-4-carboxamide], in that order: 7.7 µM and more than 20 µM.

For the molecule `CCc1ccccc1NC(=O)c1c(C)nsc1Nc1cc(C#N)ccn1` [Example 4, 5-[(4-Cyanopyridin-2-yl)amino]-N-(2-ethylphenyl)-3-methyl-1,2-thiazole-4-carboxamide], the results for the IC50 in assay [1] and in assay [2] were 3.2 µM and more than 20 µM, respectively. For `CCc1ccccc1NC(=O)c1c(C)nsc1Nc1nccc(-c2ccccc2)n1` [Example 5, N-(2-Ethylphenyl)-3-methyl-5-[(4-phenylpyrimidin-2-yl)amino]-1,2-thiazole-4-carboxamide], in that order: more than 10 µM and more than 20 µM.

For `Cc1nsc(Nc2nc3c(C(F)(F)F)ccnc3s2)c1C(=O)Nc1ccc(F)c(F)c1` [Example 58, N-(3,4-Difluorophenyl)-3-methyl-5-{[7-(trifluoromethyl)[1,3]thiazolo[5,4-b]pyridin-2-yl]amino}-1,2-thiazole-4-carboxamide], the IC50 in assay [1] was found to be 1.5 µM; in assay [2], 19 µM. Consider `COC(=O)c1cnc(Nc2snc(C)c2C(=O)Nc2ccc(F)c(F)c2)cn1` [Example 59, Methyl 5-({4-[(3,4-difluorophenyl)carbamoyl]-3-methyl-1,2-thiazol-5-yl}amino)-pyrazine-2-carboxylate], for which the IC50 in assay [1] was 0.99 µM; in assay [2], more than 20 µM. For `Cc1nsc(Nc2cnc3cc(C(F)(F)F)ccc3n2)c1C(=O)Nc1ccc(F)c(F)c1` [Example 60, N-(3,4-Difluorophenyl)-3-methyl-5-{[6-(trifluoromethyl)quinoxalin-2-yl]amino}-1,2-thiazole-4-carboxamide], in that order: 0.73 µM and more than 20 µM. Turning to `Cc1nsc(Nc2cnc3cc(C(F)(F)F)ccc3n2)c1C(=O)Nc1ccc(Cl)c(Cl)c1` [Example 61, N-(3,4-Dichlorophenyl)-3-methyl-5-{[6-(trifluoromethyl)quinoxalin-2-yl]amino}-1,2-thiazole-4-carboxamide], the IC50 in assay [1] was 7.7 µM; in assay [2] it was more than 20 µM.

Turning to `Cc1nsc(Nc2ccc(C#N)cn2)c1C(=O)Nc1ccc(Cl)c(Cl)c1` [Example 62, 5-[(5-Cyanopyridin-2-yl)amino]-N-(3,4-dichlorophenyl)-3-methyl-1,2-thiazole-4-carboxamide], the IC50 in assay [1] was 0.42 µM; in assay [2], more than 20 µM. For `Cc1nsc(Nc2cncc(-c3ncco3)n2)c1C(=O)Nc1ccc(Cl)c(F)c1` [Example 63, N-(4-Chloro-3-fluorophenyl)-3-methyl-5-{[6-(1,3-oxazol-2-yl)pyrazin-2-yl]amino}-1,2-thiazole-4-carboxamide], in that order: 4.1 µM and more than 20 µM. `Cc1nsc(Nc2cncc(-n3cccn3)n2)c1C(=O)Nc1ccc(F)c(F)c1` [Example 64, N-(3,4-Difluorophenyl)-3-methyl-5-{[6-(1H-pyrazol-1-yl)pyrazin-2-yl]amino}-1,2-thiazole-4-carboxamide]: the IC50 in assay [1] was found to be 1.6 µM. `Cc1nsc(Nc2cnccn2)c1C(=O)Nc1ccc(F)c(F)c1` [Example 65, N-(3,4-Difluorophenyl)-3-methyl-5-(pyrazin-2-ylamino)-1,2-thiazole-4-carboxamide]: the IC50 is 2.8 µM in assay [1] and more than 20 µM in assay [2]. For the molecule `COC(=O)c1cncc(Nc2snc(C)c2C(=O)Nc2ccc(F)c(F)c2)n1` [Example 66, Methyl 6-({4-[(3,4-difluorophenyl)carbamoyl]-3-methyl-1,2-thiazol-5-yl}amino)-pyrazine-2-carboxylate], the figures for the IC50 in assay [1] and in assay [2] were 2.6 µM and more than 20 µM, respectively. For the molecule `Cc1nsc(Nc2cncc(-n3cccn3)n2)c1C(=O)Nc1ccc(Cl)c(F)c1` [Example 67, N-(4-Chloro-3-fluorophenyl)-3-methyl-5-{[6-(1H-pyrazol-1-yl)pyrazin-2-yl]amino}-1,2-thiazole-4-carboxamide], the results for the IC50 in assay [1] and in assay [2] were 0.77 µM and more than 20 µM, respectively. For `Cc1nsc(Nc2cnc3cc(C(F)(F)F)ccc3n2)c1C(=O)Nc1ccc(Cl)c(F)c1` [Example 68, N-(4-Chloro-3-fluorophenyl)-3-methyl-5-{[6-(trifluoromethyl)quinoxalin-2-yl]amino}-1,2-thiazole-4-carboxamide], in that order: 1 µM and more than 20 µM. For the molecule `Cc1cncc(Nc2snc(C)c2C(=O)Nc2ccc(F)c(F)c2)n1` [Example 69], the IC50 in assay [1] was 7 µM; in assay [2] it was more than 20 µM. As for `CNC(=O)c1cncc(Nc2snc(C)c2C(=O)Nc2ccc(F)c(F)c2)n1` [Example 70, 6-({4-[(3,4-Difluorophenyl)carbamoyl]-3-methyl-1,2-thiazol-5-yl}amino)-N-methylpyrazine-2-carboxamide], the values for the IC50 in assay [1] and in assay [2] were 6.4 µM and more than 20 µM, respectively. In the same order, the values of `Cc1nsc(Nc2cncc(Cl)n2)c1C(=O)Nc1ccc(F)c(F)c1` [Example 71, 5-[(6-Chloropyrazin-2-yl)amino]-N-(3,4-difluorophenyl)-3-methyl-1,2-thiazole-4-carboxamide] are 0.38 µM and more than 20 µM.

Consider `COc1cncc(Nc2snc(C)c2C(=O)Nc2ccc(F)c(F)c2)n1` [Example 72, N-(3,4-Difluorophenyl)-5-[(6-methoxypyrazin-2-yl)amino]-3-methyl-1,2-thiazole-4-carboxamide], for which the IC50 was 1.7 µM in assay [1] and more than 20 µM in assay [2].

With `CCNC(=O)c1cncc(Nc2snc(C)c2C(=O)Nc2ccc(F)c(F)c2)n1` [Example 73, 6-({4-[(3,4-Difluorophenyl)carbamoyl]-3-methyl-1,2-thiazol-5-yl}amino)-N-ethylpyrazine-2-carboxamide], the IC50 is 1.2 µM in assay [1] and more than 20 µM in assay [2]. In the same order, the values of `Cc1nsc(Nc2cnc(Cl)cn2)c1C(=O)Nc1ccc(F)c(F)c1` [Example 74, 5-[(5-Chloropyrazin-2-yl)amino]-N-(3,4-difluorophenyl)-3-methyl-1,2-thiazole-4-carboxamide] are 0.26 µM and more than 20 µM. With `CNC(=O)c1cnc(Nc2snc(C)c2C(=O)Nc2ccc(F)c(F)c2)cn1` [Example 75, 5-({4-[(3,4-Difluorophenyl)carbamoyl]-3-methyl-1,2-thiazol-5-yl}amino)-N-methylpyrazine-2-carboxamide], the values for the IC50 in assay [1] and in assay [2] were 1.9 µM and more than 20 µM, respectively. In the same order, the values of `CCc1cncc(Nc2snc(C)c2C(=O)Nc2ccc(F)c(F)c2)n1` [Example 76, N-(3,4-Difluorophenyl)-5-[(6-ethylpyrazin-2-yl)amino]-3-methyl-1,2-thiazole-4-carboxamide] are 2.6 µM and more than 20 µM. As to `Cc1nsc(Nc2cnc(Br)cn2)c1C(=O)Nc1ccc(F)c(F)c1` [Example 77, 5-[(5-Bromopyrazin-2-yl)amino]-N-(3,4-difluorophenyl)-3-methyl-1,2-thiazole-4-carboxamide], the IC50 in assay [1] was 0.2 µM; in assay [2] it was more than 20 µM. In the same order, the values of `CCNc1cncc(Nc2snc(C)c2C(=O)Nc2ccc(F)c(F)c2)n1` [Example 78, N-(3,4-Difluorophenyl)-5-{[6-(ethylamino)pyrazin-2-yl]amino}-3-methyl-1,2-thiazole-4-carboxamide] are 2.5 µM and 16 µM. In the same order, the values of `CCc1cnc(Nc2snc(C)c2C(=O)Nc2ccc(F)c(F)c2)cn1` [Example 79, N-(3,4-Difluorophenyl)-5-[(5-ethylpyrazin-2-yl)amino]-3-methyl-1,2-thiazole-4-carboxamide] are 0.8 µM and more than 20 µM. In the same order, the values of `CNC(=O)c1ccc(Nc2snc(C)c2C(=O)Nc2ccc(F)c(F)c2)nn1` [Example 80, 6-({4-[(3,4-Difluorophenyl)carbamoyl]-3-methyl-1,2-thiazol-5-yl}amino)-N-methylpyridazine-3-carboxamide] are 4.4 µM and more than 20 µM. With `Cc1nsc(Nc2cnc(C(F)(F)F)cn2)c1C(=O)Nc1ccc(F)c(F)c1` [Example 81, N-(3,4-Difluorophenyl)-3-methyl-5-{[5-(trifluoromethyl)pyrazin-2-yl]amino}-1,2-thiazole-4-carboxamide], the IC50 is 0.38 µM in assay [1] and more than 20 µM in assay [2]. As to `COc1ccc2nc(Nc3snc(C)c3C(=O)Nc3ccc(OC)nc3)sc2c1` [Example 87, 5-[(6-Methoxy-1,3-benzothiazol-2-yl)amino]-N-(6-methoxypyridin-3-yl)-3-methyl-1,2-thiazole-4-carboxamide], in assay [1], the IC50 was 2.8 µM. On the same count and under the same terms, then `COc1ccc(NC(=O)c2c(C)nsc2Nc2nc3ccc(F)cc3s2)cn1` [Example 88, 5-[(6-Fluoro-1,3-benzothiazol-2-yl)amino]-N-(6-methoxypyridin-3-yl)-3-methyl-1,2-thiazole-4-carboxamide], with 2.1 µM; and `CCc1ccccc1NC(=O)c1c(C)nsc1Nc1nc(C(=O)OC)co1` [Example 91, Methyl 2-({4-[(2-ethylphenyl)carbamoyl]-3-methyl-1,2-thiazol-5-yl}amino)-1,3-oxazole-4-carboxylate], with 9.7 µM.

The record behind these values is patent US9682995B2, “Amino-substituted isothiazoles” (BAYER PHARMA AKTIENGESELLSCHAFT, priority 2013, dated 2017).
